Test results published in patent publication US20210346317A1, “TREATMENT OF HEMATOPOIETIC STEM CELL TRANSPLANT PATIENTS” (PRIOTHERA LIMITED, priority 2016, published 2021).

Key:
[1] = test system: Recipient C57BL/6 or IDUAKI (B6.129S-Iduatm1.1Kmke/J) mice; experiment: Mouse model of inherited metabolic disease (IMD): HSC engraftment after mild non-myeloablative conditioning; type: in vivo
Source text: Recipient C57BL/6 or IDUAKI (B6.129S-Iduatm1.1Kmke/J) mice were conditioned with a mild non-myeloablative regimen. A limited number of 1×10E3 HSC were transplanted from congenic mice. Groups were either untreated or treated with KRP for 15 days.

patients undergoing HSCT = experiment: Neutrophil engraftment in patients after allogeneic hematopoietic stem cell transplantation; type: in vivo; details: for neutrophil count above baseline: e.g. 2 mg KRP203/per day
Description: Day 1=drug treatment commences (e.g. 2 mg KRP203/per day)
Day 2 and Day 10: Conditioning was performed as described above (e.g. Mini Seattle or RIC)
Day 11: transplantation of stem cells from an allogeneic donor is being carried out
To monitor for engraftment of donor hematopoietic stem cells in recipients, the neutrophil count is measured usually daily. The commonly accepted definition of “day of engraftment” (take) is the first of three consecutive days with a neutrophil count higher than 500 cells per microliter. A neutrophil count of higher than 500 cells per microliter is reached in the below experiment, when the probability of engraftment is 1.0 (100%) versus baseline or higher. The donor origin of these cells is normally confirmed by genomic analyses on day 30.

[2] = day 56, 1×10E3 HSC from congenic mice, treated for 15 days, vs untreated group

SMILES: NC(CO)(CO)CCc1ccc(Sc2cccc(OCc3ccccc3)c2)cc1Cl [KRP203, 2-amino-2-[4-(3-benzyloxyphenylthio)-2-chlorophenyl]ethyl-propane-1,3-diol]
- donor cells in engrafted mice [1, 2]: more donor cells than the untreated group
- mice engrafted [1, 2]: More mice from the KRP203 treated group engrafted
- engraftment (conclusion) ([1]; non-myeloablative conditions, limited HSC, treatment in the peri-transplant period): augments engraftment
- Probability of neutrophil engraftment (patients undergoing HSCT; Day 0): 0.00
- Probability of neutrophil engraftment (patients undergoing HSCT; Day 10): 0.00
- Probability of neutrophil engraftment (patients undergoing HSCT; Day 11): 0.33
- neutrophil count above baseline (patients undergoing HSCT; Day 11, control group 11%): 33 % above baseline
- Probability of neutrophil engraftment (patients undergoing HSCT; Day 12): 0.44
- Probability of neutrophil engraftment (patients undergoing HSCT; Day 13): 0.67
- Probability of neutrophil engraftment (patients undergoing HSCT; Day 14): 0.89
- Probability of neutrophil engraftment (patients undergoing HSCT; Day 15): 1.00
- neutrophil count above baseline (patients undergoing HSCT; Day 15, control group 48%): 100 % above baseline
- Probability of neutrophil engraftment (patients undergoing HSCT; Day 16): 1.00
- Probability of neutrophil engraftment (patients undergoing HSCT; Day 17): 1.00
- Probability of neutrophil engraftment (patients undergoing HSCT; Day 18): 1.00
- Probability of neutrophil engraftment (patients undergoing HSCT; Day 19): 1.00
- Probability of neutrophil engraftment (patients undergoing HSCT; Day 20): 1.00
- Probability of neutrophil engraftment (patients undergoing HSCT; Day 21): 1.00
- Probability of neutrophil engraftment (patients undergoing HSCT; Day 22): 1.00
- Probability of neutrophil engraftment (patients undergoing HSCT; Day 23): 1.00
- speed of engraftment vs control group (patients undergoing HSCT; FIG. 1 and Table 1, patients treated with KRP203): engrafted much faster than the control group
